Experimental data published in ChEMBL document CHEMBL1138774, “Potent and selective ketoamide-based inhibitors of cysteine protease, cathepsin K” (J Med Chem, 2004).

Experiments:
Cathepsin K = target: T1, Cathepsin K (Homo sapiens, UniProt P43235); experiment: Inhibitory potency against human Cathepsin K
T1 sequence (P43235 whole entry): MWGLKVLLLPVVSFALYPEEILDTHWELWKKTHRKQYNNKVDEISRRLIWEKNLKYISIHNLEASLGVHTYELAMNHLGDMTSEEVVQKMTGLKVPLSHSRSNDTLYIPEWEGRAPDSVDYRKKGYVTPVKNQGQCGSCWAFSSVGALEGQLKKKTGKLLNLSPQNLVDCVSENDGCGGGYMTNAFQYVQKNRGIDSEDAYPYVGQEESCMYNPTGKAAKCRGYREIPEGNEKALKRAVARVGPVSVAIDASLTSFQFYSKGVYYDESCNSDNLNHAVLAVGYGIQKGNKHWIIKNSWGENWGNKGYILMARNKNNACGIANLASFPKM

[1] = target: Cathepsin (H and K) (Homo sapiens) (UniProt P09668+P43235); experiment: Selectivity for human cathepsin H over human cathepsin K; type: protein assay
Chain of Cathepsin (H and K) (Homo sapiens) (P09668 whole entry, looked up, one chain of several): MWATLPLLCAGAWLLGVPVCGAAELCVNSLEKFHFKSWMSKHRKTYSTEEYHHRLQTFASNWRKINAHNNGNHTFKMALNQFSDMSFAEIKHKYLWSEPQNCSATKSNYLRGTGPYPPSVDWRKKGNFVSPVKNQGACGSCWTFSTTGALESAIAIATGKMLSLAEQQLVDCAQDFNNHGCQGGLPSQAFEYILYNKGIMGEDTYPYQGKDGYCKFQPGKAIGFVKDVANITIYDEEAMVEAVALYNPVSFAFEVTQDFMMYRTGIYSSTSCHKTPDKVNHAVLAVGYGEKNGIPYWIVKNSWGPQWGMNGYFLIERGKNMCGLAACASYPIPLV

[2] = target: Cathepsin (L and K) (Homo sapiens) (UniProt P43235+P07711); experiment: Selectivity for human cathepsin L over human cathepsin K; type: protein assay
Chain of Cathepsin (L and K) (Homo sapiens) (P07711 whole entry, looked up, one chain of several): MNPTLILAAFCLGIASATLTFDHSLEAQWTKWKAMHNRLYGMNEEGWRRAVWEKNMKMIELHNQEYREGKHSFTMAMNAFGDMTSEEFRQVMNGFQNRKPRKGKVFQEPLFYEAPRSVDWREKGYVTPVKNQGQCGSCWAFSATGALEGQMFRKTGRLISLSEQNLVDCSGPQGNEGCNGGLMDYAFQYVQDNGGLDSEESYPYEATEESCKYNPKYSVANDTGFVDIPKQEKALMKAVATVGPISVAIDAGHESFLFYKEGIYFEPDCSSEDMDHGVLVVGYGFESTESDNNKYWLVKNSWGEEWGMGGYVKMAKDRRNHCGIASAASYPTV

[3] = target: Cathepsin (S and K) (Homo sapiens) (UniProt P25774+P43235); experiment: Selectivity for human cathepsin S over human cathepsin K; type: protein assay
Chain of Cathepsin (S and K) (Homo sapiens) (P25774 whole entry, looked up, one chain of several): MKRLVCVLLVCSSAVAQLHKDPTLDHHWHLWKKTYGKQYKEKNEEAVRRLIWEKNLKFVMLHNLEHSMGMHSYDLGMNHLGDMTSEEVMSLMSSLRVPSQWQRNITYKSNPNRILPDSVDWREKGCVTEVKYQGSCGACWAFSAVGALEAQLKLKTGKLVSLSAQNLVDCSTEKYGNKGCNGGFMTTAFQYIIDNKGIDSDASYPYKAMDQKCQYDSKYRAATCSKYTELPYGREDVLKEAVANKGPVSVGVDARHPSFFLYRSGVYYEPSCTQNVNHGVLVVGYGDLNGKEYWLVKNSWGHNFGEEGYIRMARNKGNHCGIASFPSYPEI

[4] = target: Cathepsin (V and K) (Homo sapiens) (UniProt P43235+O60911); experiment: Selectivity for human cathepsin V over human cathepsin K; type: protein assay
Chain of Cathepsin (V and K) (Homo sapiens) (O60911 whole entry, looked up, one chain of several): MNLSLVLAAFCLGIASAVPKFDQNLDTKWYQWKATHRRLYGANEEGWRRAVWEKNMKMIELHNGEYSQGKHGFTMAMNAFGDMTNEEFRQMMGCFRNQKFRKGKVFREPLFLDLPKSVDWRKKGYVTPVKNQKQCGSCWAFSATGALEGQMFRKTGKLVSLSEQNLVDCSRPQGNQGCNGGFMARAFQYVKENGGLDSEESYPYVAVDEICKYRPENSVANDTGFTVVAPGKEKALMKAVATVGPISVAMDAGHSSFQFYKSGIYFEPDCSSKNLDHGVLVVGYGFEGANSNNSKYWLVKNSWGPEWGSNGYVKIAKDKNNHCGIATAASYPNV

[5] = target: Cathepsin (B and K) (Homo sapiens) (UniProt P43235+P07858); experiment: Selectivity for human cathepsin B over human cathepsin K; type: protein assay

| IC50 (Cathepsin K) | Selectivity [1] | Selectivity [2] | Selectivity [3] | Selectivity [4] | Selectivity [5] | Compound |
| --- | --- | --- | --- | --- | --- | --- |
| 68 nM | – | – | – | – | – | CCCC[C@H](NC(=O)OCC1(CC)COC1)C(=O)C(=O)N[C@H](C)c1ccccc1 |
| 51 nM | > 250 | > 250 | 33 | 102 | > 250 | CCCC[C@H](NC(=O)OCC1(CC)CCC1)C(=O)C(=O)Nc1ccnn1CC1CC1 |
| 45 nM | > 280 | 270 | 14 | 49 | > 280 | CCCC[C@H](NC(=O)OCC1(CC)CCC1)C(=O)C(=O)Nc1ccnn1C1CCC1 |
| 10 nM | – | – | – | – | – | CCCC[C@H](NC(=O)OCC1(CC)COC1)C(=O)C(=O)Nc1cc(-c2ccccc2)n[nH]1 |
| 76 nM | > 170 | > 170 | 14 | 89 | > 170 | CCCC[C@H](NC(=O)OCC1(CC)CCC1)C(=O)C(=O)Nc1ccnn1CC(C)C |
| 20 nM | – | – | – | – | – | CCCC[C@H](NC(=O)OCC1(CC)CCC1)C(=O)C(=O)Nc1ccon1 |
